Reference: patent US9062124B2, “GIP-based mixed agonists for treatment of metabolic disorders and obesity” (priority 2008, dated 2015)

How the values were obtained:
Format in all cases: cell-based
glucagon receptor = target: T1, glucagon receptor (Homo sapiens, UniProt P47871); assay: cAMP synthesis functional assay (firefly luciferase reporter in HEK293 cells), glucagon receptor; conditions: for EC50: Glucagon Receptor EC50, cAMP luciferase reporter assay as in Example 16; for Glucagon Receptor relative activity: relative to the standard (Std.) EC50 of the same run
T1 construct: expressed in transfected cells; host or cells: HEK293

GLP-1 receptor = target: T2, GLP-1 receptor (Homo sapiens, UniProt P43220); assay: cAMP synthesis functional assay (firefly luciferase reporter in HEK293 cells), GLP-1 receptor; conditions: for EC50: GLP-1 Receptor EC50, cAMP luciferase reporter assay as in Example 16; for GLP-1 Receptor relative activity: relative to the standard (Std.) EC50 of the same run
T2 construct: expressed in transfected cells; host or cells: HEK293

GIP receptor = target: T3, GIP receptor (Homo sapiens, UniProt P48546); assay: cAMP synthesis functional assay (firefly luciferase reporter in HEK293 cells), GIP receptor; conditions: for EC50: GIP Receptor EC50, cAMP luciferase reporter assay as in Example 16; for GIP Receptor relative activity: relative to the standard (Std.) EC50 of the same run
T3 construct: expressed in transfected cells; host or cells: HEK293
T3 sequence (P48546 22-466): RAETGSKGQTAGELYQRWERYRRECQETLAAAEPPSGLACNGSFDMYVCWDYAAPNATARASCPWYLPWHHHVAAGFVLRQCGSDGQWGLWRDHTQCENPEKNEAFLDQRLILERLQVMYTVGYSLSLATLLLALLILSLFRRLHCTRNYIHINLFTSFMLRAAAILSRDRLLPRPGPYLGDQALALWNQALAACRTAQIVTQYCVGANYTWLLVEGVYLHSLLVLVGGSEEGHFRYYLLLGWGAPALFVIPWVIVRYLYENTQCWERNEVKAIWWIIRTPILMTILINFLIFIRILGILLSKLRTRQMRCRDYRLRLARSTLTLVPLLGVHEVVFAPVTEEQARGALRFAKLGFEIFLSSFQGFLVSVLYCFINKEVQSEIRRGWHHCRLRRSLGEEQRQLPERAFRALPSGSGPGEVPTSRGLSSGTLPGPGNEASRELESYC

[1] = system: glucagon receptor, GLP-1 receptor or GIP receptor; assay: Agonist profile across receptors assigned from the cAMP reporter assay data; conditions: assigned from the in vitro EC50 data of Tables 1-4

T1 sequence (P47871 26-477): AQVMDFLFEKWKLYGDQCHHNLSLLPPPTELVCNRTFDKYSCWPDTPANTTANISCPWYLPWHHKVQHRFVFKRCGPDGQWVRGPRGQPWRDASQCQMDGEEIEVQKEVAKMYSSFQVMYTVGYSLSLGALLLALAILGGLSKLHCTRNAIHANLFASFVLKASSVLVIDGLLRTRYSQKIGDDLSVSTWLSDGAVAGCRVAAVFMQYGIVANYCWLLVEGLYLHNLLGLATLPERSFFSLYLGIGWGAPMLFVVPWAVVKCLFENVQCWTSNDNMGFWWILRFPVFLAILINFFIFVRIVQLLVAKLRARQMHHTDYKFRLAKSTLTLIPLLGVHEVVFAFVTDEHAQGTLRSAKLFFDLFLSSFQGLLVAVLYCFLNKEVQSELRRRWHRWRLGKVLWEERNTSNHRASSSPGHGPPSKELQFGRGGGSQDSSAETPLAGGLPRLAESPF
T2 sequence (P43220 24-463, species assumed): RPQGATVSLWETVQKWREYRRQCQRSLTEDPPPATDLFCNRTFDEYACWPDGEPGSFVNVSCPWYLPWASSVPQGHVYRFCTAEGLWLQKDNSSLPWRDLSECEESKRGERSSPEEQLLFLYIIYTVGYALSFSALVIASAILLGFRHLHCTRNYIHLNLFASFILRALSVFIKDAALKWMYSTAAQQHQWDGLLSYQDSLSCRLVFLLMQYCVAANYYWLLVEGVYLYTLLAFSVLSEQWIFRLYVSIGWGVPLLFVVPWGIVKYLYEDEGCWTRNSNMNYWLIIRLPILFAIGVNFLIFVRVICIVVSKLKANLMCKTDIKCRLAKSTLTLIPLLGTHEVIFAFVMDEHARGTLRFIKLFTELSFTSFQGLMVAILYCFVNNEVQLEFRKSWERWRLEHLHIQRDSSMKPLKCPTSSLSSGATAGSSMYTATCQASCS

Structure (SMILES): CCCCCCCCCCCCCC(=O)NCCCC[C@H](NC(=O)[C@@H](NC(=O)[C@H](Cc1ccccc1)NC(=O)[C@H](CCC(=O)O)NC(=O)C(C)(C)NC(=O)[C@H](C)NC(=O)[C@H](C)NC(=O)[C@H](CCC(N)=O)NC(=O)[C@H](CCCCN)NC(=O)[C@H](CC(=O)O)NC(=O)[C@H](CC(C)C)NC(=O)[C@H](Cc1ccc(O)cc1)NC(=O)[C@@H](NC(=O)[C@H](CO)NC(=O)[C@H](Cc1ccc(O)cc1)NC(=O)[C@H](CC(=O)O)NC(=O)[C@H](CO)NC(=O)[C@@H](NC(=O)[C@H](Cc1ccccc1)NC(=O)[C@@H](NC(=O)CNC(=O)[C@H](CCC(=O)O)NC(=O)C(C)(C)NC(=O)[C@@H](N)Cc1ccc(O)cc1)[C@@H](C)O)[C@@H](C)O)[C@@H](C)CC)C(C)C)C(=O)N[C@@H](Cc1c[nH]c2ccccc12)C(=O)N[C@@H](CC(C)C)C(=O)N[C@@H](CC(C)C)C(=O)N[C@@H](C)C(=O)NCC(=O)NCC(=O)N1CCC[C@H]1C(=O)N[C@@H](CO)C(=O)N[C@@H](CO)C(=O)NCC(=O)N[C@@H](C)C(=O)N1CCC[C@H]1C(=O)N1CCC[C@H]1C(=O)N1CCC[C@H]1C(=O)N[C@@H](CO)C(N)=O [mt-265]
- EC50 (glucagon receptor): 6.43 nM
- Glucagon Receptor relative activity (glucagon receptor): 0.68%
- EC50 (GLP-1 receptor): 0.993 nM
- GLP-1 Receptor relative activity (GLP-1 receptor): 1.77%
- EC50 (GIP receptor): 0.0624 nM
- GIP Receptor relative activity (GIP receptor): 13.62%
- receptor activity profile (glucagon / GLP-1 / GIP agonism) [1]: exhibited activity at the GIP, GLP-1, and glucagon receptors

Structure (SMILES): CCCCCCCCCCCCCCCC(=O)NCCCC[C@H](NC(=O)[C@@H](NC(=O)[C@H](Cc1ccccc1)NC(=O)[C@H](CCC(=O)O)NC(=O)C(C)(C)NC(=O)[C@H](C)NC(=O)[C@H](C)NC(=O)[C@H](CCC(N)=O)NC(=O)[C@H](CCCCN)NC(=O)[C@H](CC(=O)O)NC(=O)[C@H](CC(C)C)NC(=O)[C@H](Cc1ccc(O)cc1)NC(=O)[C@@H](NC(=O)[C@H](CO)NC(=O)[C@H](Cc1ccc(O)cc1)NC(=O)[C@H](CC(=O)O)NC(=O)[C@H](CO)NC(=O)[C@@H](NC(=O)[C@H](Cc1ccccc1)NC(=O)[C@@H](NC(=O)CNC(=O)[C@H](CCC(=O)O)NC(=O)C(C)(C)NC(=O)[C@@H](N)Cc1ccc(O)cc1)[C@@H](C)O)[C@@H](C)O)[C@@H](C)CC)C(C)C)C(=O)N[C@@H](Cc1c[nH]c2ccccc12)C(=O)N[C@@H](CC(C)C)C(=O)N[C@@H](CC(C)C)C(=O)N[C@@H](C)C(=O)NCC(=O)NCC(=O)N1CCC[C@H]1C(=O)N[C@@H](CO)C(=O)N[C@@H](CO)C(=O)NCC(=O)N[C@@H](C)C(=O)N1CCC[C@H]1C(=O)N1CCC[C@H]1C(=O)N1CCC[C@H]1C(=O)N[C@@H](CO)C(N)=O [mt-266]
- EC50 (glucagon receptor): 18.6 nM
- Glucagon Receptor relative activity (glucagon receptor): 0.23%
- EC50 (GLP-1 receptor): 1.53 nM
- GLP-1 Receptor relative activity (GLP-1 receptor): 1.15%
- EC50 (GIP receptor): 0.164 nM
- GIP Receptor relative activity (GIP receptor): 5.19%
- receptor activity profile (glucagon / GLP-1 / GIP agonism) [1]: exhibited activity at the GIP, GLP-1, and glucagon receptors
